Test results taken from US20240383853A1, “OXIMES AND THEIR USE IN TREATMENT OF GBA-RELATED DISEASES” (ZEVRA DENMARK A/S, priority 2021, published 2024).
Counter-ions that a name gives are not always drawn. Marks after values point to notes of the source that are not given here.

Target: T1, glucosylceramidase (GCase, GBA) in human fibroblast cell line GM10915 harboring the L444P GBA mutation (Homo sapiens, UniProt P04062, L483P)
T1 construct: Human fibroblast cell line GM10915 harboring the L444P GBA mutation; host or cells: GM10915 human fibroblasts
T1 sequence (P04062 40-536 L483P): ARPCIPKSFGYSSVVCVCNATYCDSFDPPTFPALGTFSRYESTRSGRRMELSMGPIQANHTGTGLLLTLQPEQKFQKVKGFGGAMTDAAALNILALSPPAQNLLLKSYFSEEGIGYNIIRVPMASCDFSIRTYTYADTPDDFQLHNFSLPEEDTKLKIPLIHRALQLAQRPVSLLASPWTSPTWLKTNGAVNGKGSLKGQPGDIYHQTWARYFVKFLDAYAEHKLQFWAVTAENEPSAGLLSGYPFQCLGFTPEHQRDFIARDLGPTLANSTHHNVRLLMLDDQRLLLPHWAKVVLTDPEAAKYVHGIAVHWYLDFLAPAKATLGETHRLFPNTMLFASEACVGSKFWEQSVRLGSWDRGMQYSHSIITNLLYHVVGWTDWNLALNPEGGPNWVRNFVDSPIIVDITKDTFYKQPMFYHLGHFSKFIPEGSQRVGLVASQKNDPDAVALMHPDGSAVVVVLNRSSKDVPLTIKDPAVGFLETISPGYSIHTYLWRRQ
Test: GCase activity assay (4-MUG substrate, normalised to crystal violet staining) in GM10915 fibroblasts
Type: cell-based
Settings: five days exposure; for GBA EC1.5: concentration where Percent GCase activity = 150% (1.5-fold induction), 8-point dose range; for GBA Emax / Emax: maximum Percent GCase activity relative to untreated cells in the dose range tested
Description: Human fibroblast cell line GM10915 harboring the L444P GBA mutation was obtained from Coriell Biorepositories. All chemicals (Glacial acetic acid, Glycine, 4-Methylumbelliferyl b-D-glucopyranoside (4-MUG), Sodium acetate trihydrate, Sodium hydroxide, Crystal violet, SDS, Ammonium hydroxide) were obtained from Sigma-Aldrich (Denmark). Compounds tested for GCase activity were dissolved in H2O or DMSO.
The GM10915 cell line was cultured under standard cell culture conditions (37° C. and 5% CO2) in complete DMEM medium supplemented with nonessential amino acids (NEAA), 1% Pen-Strep and 12% FCS. Cells were seeded at a density of 10^4 cells/well in 100 μL complete medium in one black 96-well plate for glucosylceramidase (GCase) activity measurement and in one clear 96-well plate for crystal violet staining to correct for cell density. Crystal violet staining is performed to obtain quantitative information about the relative density of cells adhering to multi-wells plates.
The assay was adapted from Sawkar et al (2002) and briefly described in the following. The day after seeding of cells, the medium was replaced with fresh medium containing the compounds to be tested. Compounds were tested in duplicate and in an 8-point diluted dose range to obtain a dose response. Cells were exposed with compounds for five days. Fresh compound was added every 2-3 days. PBS was included to define the basal level of GCase activity.
Cells were washed three times with 200 μL PBS per well and 50 μL of 2.5 mM 4-MUG buffer (4-MUG dissolved in 0.2 M acetate buffer pH 4.0) was added and the cells were incubated at 37° C., 5% CO2 for 23 hours. The reaction was stopped by adding 150 μL 0.2 M glycine buffer (pH 10.8). Fluorescence was measured with a Varioskan® Flash reader (Thermo Scientific) at an excitation/emission setting of 365/445 nm.
Cells were treated with compounds in a parallel setup identical to the setup to test for GCase activity. At the end of compound treatment, cells were washed once with 200 μL PBS per well and 50 μL 0.1% w/v crystal violet (in H2O) was added. Following 10 min. of incubation, the crystal violet solution was removed, and the cells were washed three times with 200 μL PBS and 100 μL 1% SDS was added to solubilize the stain. The plate was agitated on an orbital shaker for 10-30 min. Absorbance (A) is measured at […] using a Varioskan® Flash reader (Thermo Scientific).
The fluorescence signal (F) derived from the GCase measurement is normalized to the absorbance signal (A) derived from the crystal violet staining. The percent GCase activity resulting from compound treatment is calculated relative to the basal activity obtained from untreated cells.
Maximal effect of compounds (Emax) is determined from the dose response effects as the maximum “Percent GCase activity” achieved in the dose range tested.

| GBA EC1.5 | Emax [%] | GBA EC1.5 (listed as 419) [µM] | GBA Emax (listed as 419) [%] | Compound | GBA Emax [%] |
| --- | --- | --- | --- | --- | --- |
| 35 µM | 174 |  |  | CN1CCN(CC(O)CON=C(Cl)C2(Cc3cccnc3)CCNCC2)CC1 (single isomer, unassigned) [ID 513, N-(2-hydroxy-3-(4-methylpiperazin-1-yl)propoxy)-4-(pyridin-3-ylmethyl)piperidine-4-carbimidoyl chloride tetra-2,2,2-trifluoroacetate] |  |
| 30 µM | 239 |  |  | CN(C)CCC(Br)=NOCC(O)CN1CCCCC1 (single isomer, unassigned) [ID 532, 3-(dimethylamino)-N-(2-hydroxy-3-(piperidin-1-yl)propoxy)propanimidoyl bromide] |  |
| 24 µM | 354 |  |  | Cc1cc(C(Cl)=NOCC(O)CN2CCCCC2)on1 (centres unmarked) [ID 475, N-(2-hydroxy-3-(piperidin-1-yl)propoxy)-3-methylisoxazole-5-carbimidoyl chloride] |  |
| 42 µM | 383 |  |  | OC(CO/N=C(\Cl)C1(c2cccnc2)CCNCC1)CN1CCCCC1 (centres unmarked) [ID 492, N-(2-hydroxy-3-(piperidin-1-yl)propoxy)-4-(pyridin-3-yl)piperidine-4-carbimidoyl chloride tri-2,2,2-trifluoroacetate] |  |
| 19 µM | 128 |  |  | Cc1cc(Cl)ncc1C(Cl)=NOCC(O)CN1CCCCC1 (centres unmarked) [ID 501, 6-chloro-N-(2-hydroxy-3-(piperidin-1-yl)propoxy)-4-methylnicotinimidoyl chloride] |  |
| 23 µM | 131 |  |  | CC(O)(CON=C(Cl)c1ccc(Cl)nc1)CN1CCCCC1 (centres unmarked) [ID 502, 6-chloro-N-(2-hydroxy-2-methyl-3-(piperidin-1-yl)propoxy)nicotinimidoyl chloride] |  |
| 50 µM | 142 |  |  | COC(CO/N=C(\Cl)c1ccc(Cl)nc1)CN1CCCCC1 (centres unmarked) [ID 503] |  |
| 20 µM | 310 |  |  | OC(CON=C(Br)c1ccc(Cl)nc1)CN1CCCCC1 (centres unmarked) [ID 504, 6-chloro-N-(2-hydroxy-3-(piperidin-1-yl)propoxy)nicotinimidoyl bromide] |  |
| 50 µM | 147 |  |  | OC(CO/N=C(\Cl)C1(c2cnccn2)CCNCC1)CN1CCCCC1 (centres unmarked) [ID 512] |  |

The next lines start with the compound.

| Compound | GBA EC1.5 | Emax [%] | GBA EC1.5 (listed as 419) [µM] | GBA Emax (listed as 419) [%] | GBA Emax [%] |
| --- | --- | --- | --- | --- | --- |
| 4-(3-chloropyridin-4-yl)-N-(2-hydroxy-3-(piperidin-1-yl)propoxy)piperidine-4-carbimidoyl chloride tri-2,2,2-trifluoroacetate [ID 535] | 36 µM |  |  |  | 186 |
| CC1(C(Cl)=NOC[C@@H](O)CN2CCCCC2)CCNCC1 (single isomer, unassigned) [ID 384] | 32 µM | 352 |  |  |  |
| CC1(C(Cl)=NOCC(O)CN2CC3CC3C2)CCNCC1 (single isomer, unassigned) [ID 403, N-(3-(3-azabicyclo[3.1.0]hexan-3-yl)-2-hydroxypropoxy)-4-methylpiperidine-4-carbimidoyl chloride di-2,2,2-trifluoroacetate] | 48 µM | 264 |  |  |  |
| CC1(C(Cl)=NOCC(O)CN2CC3CCC2C3)CCNCC1 (single isomer, unassigned) [ID 410, N-(3-(2-azabicyclo[2.2.1]heptan-2-yl)-2-hydroxypropoxy)-4-methylpiperidine-4-carbimidoyl chloride di-2,2,2-trifluoroacetate] | 43 µM | 344 |  |  |  |
| CC1(/C(Cl)=N/OC[C@H](O)CN2CCCCC2)CCNCC1 (stereo in doubt) [ID 387, (R)—N-(2-hydroxy-3-(piperidin-1-yl)propoxy)-4-methylpiperidine-4-carbimidoyl chloride di-2,2,2-trifluoroacetate] | 35 µM | 379 |  |  |  |
| Nc1c(Br)cc(Br)cc1CN[C@H]1CC[C@H](O)CC1 [Ambroxol, reference compound] | >20* *The 1.5-fold induction criteria was not reached within the tested concentration range μM | 127 |  |  |  |
| [O-][n+]1cccc(/C(Br)=N/OCC(O)CN2CCCCC2)c1 (centres unmarked) [ID 257] | 35 µM | 307 |  |  |  |
| CC1(/C(Cl)=N/OCC(O)CN2CCCCC2)CCNCC1 (centres unmarked) [ID 336, N-(2-hydroxy-3-(piperidin-1-yl)propoxy)-4-methylpiperidine-4-carbimidoyl chloride dihydrochloride] | 37 µM | 320 |  |  |  |
| [O-][n+]1ccc(/C(Br)=N/OCC(O)CN2CCCCC2)cc1 (centres unmarked) [ID 352] | 45 µM | 474 |  |  |  |
| CC1(/C(Cl)=N/OCC(O)CN2CCC(F)CC2)CCNCC1 (centres unmarked) [ID 399, N-(3-(4-fluoropiperidin-1-yl)-2-hydroxypropoxy)-4-methylpiperidine-4-carbimidoyl chloride di-2,2,2-trifluoroacetate] | 34 µM | 314 |  |  |  |
| CN1CCN(CC(O)CO/N=C(\Cl)C2(C)CCNCC2)CC1 (centres unmarked) [ID 402, N-(2-hydroxy-3-(4-methylpiperazin-1-yl)propoxy)-4-methylpiperidine-4-carbimidoyl chloride tri-2,2,2-trifluoroacetate] | 50 µM | 408 |  |  |  |
| CCC1(/C(Cl)=N/OCC(O)CN2CCCCC2)CCNCC1 (centres unmarked) [ID 409, 4-ethyl-N-(2-hydroxy-3-(piperidin-1-yl)propoxy)piperidine-4-carbimidoyl chloride di-2,2,2-trifluoroacetate] | 25 µM | 255 |  |  |  |
| OC(CO/N=C(\Cl)C1(c2ccccn2)CCNCC1)CN1CCCCC1 (centres unmarked) [ID 415, N-(2-hydroxy-3-(piperidin-1-yl)propoxy)-4-(pyridin-2-yl)piperidine-4-carbimidoyl chloride tri-2,2,2-trifluoroacetate] | 23 µM | 235 |  |  |  |
| OC(CO/N=C(\Cl)C1(Cc2cccnc2)CCNCC1)CN1CCCCC1 (centres unmarked) [ID 419, N-(2-hydroxy-3-(piperidin-1-yl)propoxy)-4-(pyridin-3-ylmethyl)piperidine-4-carbimidoyl chloride tri-2,2,2-trifluoroacetate] |  |  | 12 | 387 |  |
| CN(C)CC/C(Cl)=N\OCC(O)CN1CCCCC1 (centres unmarked) [ID 446, 3-(dimethylamino)-N-(2-hydroxy-3-(piperidin-1-yl)propoxy)propanimidoyl chloride] | 6 µM | 176 |  |  |  |
| COCCC1(/C(Cl)=N/OCC(O)CN2CCCCC2)CCNCC1 (centres unmarked) [ID 448, N-(2-hydroxy-3-(piperidin-1-yl)propoxy)-4-(2-methoxyethyl)piperidine-4-carbimidoyl chloride di-2,2,2-trifluoroacetate] | 34 µM | 468 |  |  |  |
| OC(CON=C(Br)c1ccnnc1)CN1CCCCC1 (centres unmarked) [ID 452, N-(2-hydroxy-3-(piperidin-1-yl)propoxy)pyridazine-4-carbimidoyl bromide] | 18 µM | 572 |  |  |  |
| Cc1ncc(C(Cl)=NOCC(O)CN2CCCCC2)s1 (centres unmarked) [ID 453, N-(2-hydroxy-3-(piperidin-1-yl)propoxy)-2-methylthiazole-5-carbimidoyl chloride] | 39 µM | 202 |  |  |  |
| OC(CON=C(Cl)c1ccc(Cl)nc1)CN1CCCCC1 (centres unmarked) [ID 466, 6-chloro-N-(2-hydroxy-3-(piperidin-1-yl)propoxy)nicotinimidoyl chloride] | 18 µM | 221 |  |  |  |
